Data reported in BindingDB's records for doi:10.1016/j.bioorg.2016.06.001 (Tehran University of Medical Sciences, 2016).

Key:
Conditions in all cases: pH 8
Acetylcholinesterase = Acetylcholinesterase (Electrophorus electricus, UniProt O42275); test: AChE and BChE Inhibition Assay
Protocol: (§1) In vitro AChEI activity was performed based on the modified Ellman's methodas previously reported by our group using a 96-well plate reader (BioTek ELx808). […] Each well contained 50 uL potassium phosphate buffer (KH2PO4/K2HPO4, 0.1 M, pH 8), 25 uL prepared sample as described above, 25 uL enzyme with final concentration of 0.22 U/mL in buffer. They were preincubated for 15 min at rt, and then 125 uL DTNB (3 mM in buffer) was added. […] The IC50 values were determined graphically from inhibition curves (log inhibitor concentration vs. percent of inhibition).

[1] = molecular target: Carboxylic ester hydrolase (Equus caballus, UniProt Q9N1N9); test: AChE and BChE Inhibition Assay
Sequence of Carboxylic ester hydrolase (Q9N1N9 whole entry): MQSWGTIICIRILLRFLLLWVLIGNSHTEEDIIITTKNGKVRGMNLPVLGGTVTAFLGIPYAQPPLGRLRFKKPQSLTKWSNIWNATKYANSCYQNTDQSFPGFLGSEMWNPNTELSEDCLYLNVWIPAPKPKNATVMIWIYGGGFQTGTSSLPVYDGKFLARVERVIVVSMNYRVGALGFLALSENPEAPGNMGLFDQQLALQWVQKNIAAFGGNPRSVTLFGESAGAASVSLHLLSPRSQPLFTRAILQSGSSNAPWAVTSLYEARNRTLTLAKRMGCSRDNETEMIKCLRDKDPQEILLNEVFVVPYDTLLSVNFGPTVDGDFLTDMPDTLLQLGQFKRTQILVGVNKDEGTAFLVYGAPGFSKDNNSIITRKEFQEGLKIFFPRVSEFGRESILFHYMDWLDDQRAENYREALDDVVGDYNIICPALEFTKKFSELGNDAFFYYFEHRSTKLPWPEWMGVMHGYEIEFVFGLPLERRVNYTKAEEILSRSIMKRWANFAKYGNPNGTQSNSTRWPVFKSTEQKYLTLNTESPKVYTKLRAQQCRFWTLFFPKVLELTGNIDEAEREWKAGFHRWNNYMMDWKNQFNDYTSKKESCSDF
Protocol: as §1

[2] = AChE and BChE Inhibition Assay

Sequence of Acetylcholinesterase (O42275 whole entry): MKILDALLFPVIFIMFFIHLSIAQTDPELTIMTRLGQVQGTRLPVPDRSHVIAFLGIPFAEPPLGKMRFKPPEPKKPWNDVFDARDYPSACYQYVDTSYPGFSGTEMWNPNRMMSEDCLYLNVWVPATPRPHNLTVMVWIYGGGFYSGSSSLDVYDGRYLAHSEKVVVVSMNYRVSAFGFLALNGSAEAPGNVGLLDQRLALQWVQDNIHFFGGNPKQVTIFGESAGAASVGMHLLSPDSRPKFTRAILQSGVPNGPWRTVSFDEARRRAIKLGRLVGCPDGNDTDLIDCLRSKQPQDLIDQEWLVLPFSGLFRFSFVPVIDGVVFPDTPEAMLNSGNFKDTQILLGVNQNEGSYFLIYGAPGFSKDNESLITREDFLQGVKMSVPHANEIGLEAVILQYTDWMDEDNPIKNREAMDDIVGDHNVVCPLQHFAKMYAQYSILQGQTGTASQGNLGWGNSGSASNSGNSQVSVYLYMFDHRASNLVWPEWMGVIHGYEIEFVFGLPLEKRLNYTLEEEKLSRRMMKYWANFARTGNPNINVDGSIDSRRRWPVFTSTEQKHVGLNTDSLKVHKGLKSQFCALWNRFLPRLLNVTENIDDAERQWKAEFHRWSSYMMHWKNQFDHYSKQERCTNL

Row | SMILES | IC50 (Acetylcholinesterase) [µM] | IC50 [1] [µM] | IC50 [2] [µM]
1 | Cc1cc(=O)oc2cc(Oc3ccc(Nc4c5c(nc6ccccc46)CCCC5)cc3)ccc12 [4-Methyl-7-(4-((1,2,3,4-tetrahydroacridin-9-yl)amino)phenoxy)-2H-chromen-2-one (8j)] | 22.1 | 38.6 | 
2 | Cc1cc(=O)oc2cc(Oc3ccc(Nc4c5c(nc6ccccc46)CCCCC5)cc3)ccc12 [4-Methyl-7-(4-((7,8,9,10-tetrahydro-6H-cyclohepta[b]quinolin-11-yl)amino)phenoxy)-2H-chromen-2-one (8o)] | 64.4 | > 100 | 
3 | Cc1cc(=O)oc2cc(Oc3ccc(Nc4c5c(nc6ccc(Cl)cc46)CCCCC5)cc3)ccc12 [7-(4-(2-Chloro-7,8,9,10-tetrahydro-6H-cyclohepta[b]quinolin-11-ylamino)phenoxy)-4-methyl-2H-chromen-2-one (8q)] | 54.1 | > 100 | 
4 | O=c1ccc2ccc(Oc3ccc(Nc4c5c(nc6ccccc46)CCCC5)cc3)cc2o1 [7-(4-((1,2,3,4-Tetrahydroacridin-9-yl)amino)phenoxy)-2H-chromen-2-one (8g)] | 19.1 | 28.7 | 
5 | O=c1ccc2ccc(Oc3ccc(Nc4c5c(nc6ccccc46)CCC5)cc3)cc2o1 [7-(4-((2,3-Dihydro-1H-cyclopenta[b]quinolin-9-yl)amino)phenoxy)-2H-chromen-2-one (8a)] | 83.1 | > 100 | 
6 | Cc1cc(=O)oc2cc(Oc3ccc(Nc4c5c(nc6ccccc46)CCC5)cc3)ccc12 [7-(4-((2,3-Dihydro-1H-cyclopenta[b]quinolin-9-yl)amino)phenoxy)-4-methyl-2H-chromen-2-one (8d)] | 45.3 | > 100 | 
7 | O=c1ccc2ccc(Oc3ccc(Nc4c5c(nc6cc(Cl)ccc46)CCCCC5)cc3)cc2o1 [7-(4-((3-Chloro-7,8,9,10-tetrahydro-6H-cyclohepta[b]quinolin-11-yl)amino)phenoxy)-2H-chromen-2-one (8n)] | > 100 | > 100 | 
8 | Cc1cc(=O)oc2cc(Oc3ccc(Nc4c5c(nc6cc(Cl)ccc46)CCCCC5)cc3)ccc12 [7-(4-((3-Chloro-7,8,9,10-tetrahydro-6H-cyclohepta[b]quinolin-11-yl)amino)phenoxy)-4-methyl-2H-chromen-2-one (8p)] | 31.8 | > 100 | 
9 | O=c1ccc2ccc(Oc3ccc(Nc4c5c(nc6cc(Cl)ccc46)CCCC5)cc3)cc2o1 [7-(4-((6-Chloro-1,2,3,4-tetrahydroacridin-9-yl)amino)phenoxy)-2H-chromen-2-one (8h)] | > 100 | > 100 | 
10 | Cc1cc(=O)oc2cc(Oc3ccc(Nc4c5c(nc6cc(Cl)ccc46)CCCC5)cc3)ccc12 [7-(4-((6-Chloro-1,2,3,4-tetrahydroacridin-9-yl)amino)phenoxy)-4-methyl-2H-chromen-2-one (8k)] | 18 | 31.2 | 
11 | O=c1ccc2ccc(Oc3ccc(Nc4c5c(nc6cc(Cl)ccc46)CCC5)cc3)cc2o1 [7-(4-((6-Chloro-2,3-dihydro-1H-cyclopenta[b]quinolin-9-yl)amino)phenoxy)-2H-chromen-2-one (8b)] | > 100 | 11.6 | 
12 | Cc1cc(=O)oc2cc(Oc3ccc(Nc4c5c(nc6cc(Cl)ccc46)CCC5)cc3)ccc12 [7-(4-((6-Chloro-2,3-dihydro-1H-cyclopenta[b]quinolin-9-yl)amino)phenoxy)-4-methyl-2H-chromen-2-one (8e)] | 16.2 | > 100 | 7.99
13 | O=c1ccc2ccc(Oc3ccc(Nc4c5c(nc6ccccc46)CCCCC5)cc3)cc2o1 [7-(4-((7,8,9,10-Tetrahydro-6H-cyclohepta[b]quinolin-11-yl)amino)phenoxy)-2H-chromen-2-one (8m)] | > 100 | > 100 | 
14 | O=c1ccc2ccc(Oc3ccc(Nc4c5c(nc6ccc(Cl)cc46)CCCC5)cc3)cc2o1 [7-(4-((7-Chloro-1,2,3,4-tetrahydroacridin-9-yl)amino)phenoxy)-2H-chromen-2-one (8i)] | > 100 | > 100 | 
15 | Cc1cc(=O)oc2cc(Oc3ccc(Nc4c5c(nc6ccc(Cl)cc46)CCCC5)cc3)ccc12 [7-(4-((7-Chloro-1,2,3,4-tetrahydroacridin-9-yl)amino)phenoxy)-4-methyl-2H-chromen-2-one (8l)] | 30.8 | > 100 | 
16 | O=c1ccc2ccc(Oc3ccc(Nc4c5c(nc6ccc(Cl)cc46)CCC5)cc3)cc2o1 [7-(4-((7-Chloro-2,3-dihydro-1H-cyclopenta[b]quinolin-9-yl)amino)phenoxy)-2H-chromen-2-one (8c)] | 38.5 | > 100 | 
17 | Cc1cc(=O)oc2cc(Oc3ccc(Nc4c5c(nc6ccc(Cl)cc46)CCC5)cc3)ccc12 [7-(4-((7-Chloro-2,3-dihydro-1H-cyclopenta[b]quinolin-9-yl)amino)phenoxy)-4-methyl-2H-chromen-2-one (8f)] | 36.7 | > 100 | 
